Literature values, collected in patent publication US20050169894A1, “Compositions and methods for ex vivo preservation of blood vessels for vascular grafts using inhibitors of Type III and/or Type IV phosphodiesterases” (priority 2003, published 2005).

How the values were obtained:
endothelial cells = details: stated as known; about 4 mM
[1] = system: Type IV phosphodiesterase; details: at high concentrations; Lugnier and Komas, 1993
Type V phosphodiesterase = Type V phosphodiesterase (Homo sapiens, UniProt O76074); details: at high concentrations; Lugnier and Komas, 1993

Row | SMILES | concentration toxic to endothelial cells (endothelial cells) | inhibition of Type IV phosphodiesterase activity [1] | inhibition of Type V phosphodiesterase activity (Type V phosphodiesterase)
1 | CCCC(=O)Nc1ncnc2c1ncn2[C@@H]1O[C@@H]2COP(=O)(O)O[C@H]2[C@H]1OC(=O)CCC [db cAMP, dibutyryl adenosine 3′,5′-cyclic monophosphate] | higher than 4 mM | – | –
2 | Cc1[nH]c(=O)c(C#N)cc1-c1ccncc1 [milrinone, Milrinone] | – | inhibits | inhibits
